Experimental data taken from patent publication US20260021108A1, “USE OF INHIBITORS OF THE HIPPO SIGNALLING PATHWAY FOR THE TREATMENT OF CHRONIC NEPHROPATHIES” (INSTITUT NATIONAL DE LA SANTÉ ET DE LA RECHERCHE MÉDICALE, priority 2022, published 2026).

How the values were obtained:
MDCK renal cells [1] = test: Ccl2 and Cxcl10 mRNA response to UPEC in confluent MDCK cells; assay type: cell-based, Dog; conditions: 6 hours, n=5
Protocol: (§1) Uropathogen E. coli (UTI89 strain, UPEC) bacteria strains were grown as previously described (Zychlinsky Scharff et al., 2019). Inactivation of bacteria was performed on bacteria resuspended at a concentration of 109/ml in PBS and heated at 60° C. for one hour.
Madin-Darby canine kidney cells (MDCK, kind gift from Prof. Kai Simons, MPI-CBG, Dresden, Germany) were cultured using DMEM (GIBCO, 41966-029) supplemented with 10% FBS (GIBCO, 10270-106) and 1% penicillin-streptomycin (GIBCO, 15140-122). A total of 200,000 cells/cm^2 were seeded for 10 days on 12 well plate (Corning, 353043). Confluent MDCK cells were stimulated for 6 hours with 5 μM XMU-MP-1 (Selleckchem, S8334) or 0.04% DMSO. […]
(§2) Total RNAs were obtained from cells using RNeasy Mini Kit (Qiagen) and reverse transcribed using High Capacity cDNA Reverse Transcription Kit (Applied Biosystems) according to the manufacturer's protocol. Quantitative PCR were performed with iTaq™ Universal SYBR® Green Supermix (Bio-Rad) on a CFX384 C1000 Touch (Bio-Rad). […] Each biological replicate was measured in technical duplicates.
(§3) Data are expressed as means+/−standard deviation. Differences between groups were evaluated using unpaired t test when only 2 groups were evaluated or one-way ANOVA followed, when significant (P<0.05), by the Tukey-Kramer test. […]

mIMCD-3 renal cells [2] = test: NPH-cytokine signature mRNA abundance (qRT-PCR) in confluent mIMCD-3 cells; assay type: cell-based, Mouse; conditions: n=3
Protocol: (§4) Mouse inner medullary collecting duct (mIMCD-3) cells were grown in DMEM/F-12 (1:1, GIBCO, 21331-020) supplemented with 10% FBS, 1% penicillin-streptomycin and 2 mM L-Glutamine (GIBCO, 25030-024). A total of 50,000 cells/cm^2 were seeded for 3 days on 12 well plate. Confluent mIMCD-3 cells were stimulated with 5 μM XMUMP-1 (Selleckchem, S8334), or 10 μM Lats-IN-1 (MedChemExpress, HY-138489) or 0.04% DMSO. For bacteria experiment, mIMCD-3 cells were starved overnight prior stimulation and then stimulated for 6 hours with 5 μM XMU-MP-1 or 0.04% DMSO with or without 1.108/mL UPEC.
(§5) Total RNAs were obtained from cells using RNeasy Mini Kit (Qiagen) and reverse transcribed using High Capacity cDNA Reverse Transcription Kit (Applied Biosystems) according to the manufacturer's protocol. Quantitative PCR were performed with iTaq™ Universal SYBR® Green Supermix (Bio-Rad) on a CFX384 C1000 Touch (Bio-Rad). Hprt, Sdha, Gapdh and Ppia were used as normalization controls. Each biological replicate was measured in technical duplicates.
Data are expressed as means+/−standard deviation. Differences between groups were evaluated using unpaired t test when only 2 groups were evaluated or one-way ANOVA followed, when significant (P<0.05), by the Tukey-Kramer test. The statistical analysis was performed using GraphPad Prism V8 software.

MDCK renal cells [3] = test: NPH-cytokine signature mRNA abundance (qRT-PCR) in confluent MDCK cells; assay type: cell-based, Dog; conditions: 5 μM XMU-MP-1, 6 hours, n=3-6
Protocol: Madin-Darby canine kidney cells (MDCK, kind gift from Prof. Kai Simons, MPI-CBG, Dresden, Germany) were cultured using DMEM (GIBCO, 41966-029) supplemented with 10% FBS (GIBCO, 10270-106) and 1% penicillin-streptomycin (GIBCO, 15140-122). A total of 200,000 cells/cm^2 were seeded for 10 days on 12 well plate (Corning, 353043). Confluent MDCK cells were stimulated for 6 hours with 5 μM XMU-MP-1 (Selleckchem, S8334) or 0.04% DMSO. For bacteria experiment, MDCK cells were starved overnight prior stimulation and then stimulated for 6 hours with 5 μM XMU-MP-1 or 10 μM Lats-IN-1 (MedChemExpress, HY-138489) with or without 1.108/mL UPEC. All cells were regularly tested for mycoplasma contamination and were mycoplasma-free.
as §5, §3

mIMCD-3 renal cells [4] = test: Inflammatory cytokine mRNA response to heat inactivated uropathogenic Escherichia coli (UPEC) in mIMCD-3 cells; assay type: cell-based, Mouse; conditions: confluent mIMCD-3 cells, 5 μM XMU-MP-1 and heat inactivated UPEC, 6 hours, n=7-10
Protocol: as §1
as §4, with “For bacteria experiment, mIMCD-3 cells were starved overnight prior stimulation and then stimulated for 6 hours with 5 μM XMU-MP-1 or 0.04% DMSO with or without 1.108/mL UPEC.” left out
as §2, §3

**Q.** Which “inflammatory response to bacteria (Ccl2 and Cxcl10 mRNA abundance)” value (MDCK renal cells [1]; 10 μM Lats-IN-1 and UPEC) does the source give for `O=C(N=c1sccn1Cc1ccccc1)c1c[nH]c2ncccc12` [Lats-IN-1, N-(3-benzylthiazol-2(3H)-ylidene)-1H-pyrrolo[2,3-b]pyridine-3-carboxamide] here?
**A.** reduces NPH-cytokine signature and inflammatory response to bacteria

**Q.** And the “NPH-cytokine signature (Ctgf, Cyr61, Ccl2, Ccl5, Cx3cl1, Cxcl1, Cxcl10, Cxcl16, Cxcl17, Il1rn, Il33, Il34, Lgals9 mRNA abundance)” value (mIMCD-3 renal cells [2]; 10 μM Lats-IN-1, 6 hours)?
**A.** suppresses partially NPH-cytokine signature

**Q.** How did the “NPH-cytokine signature (Ctgf, Cyr61, Ccl2, Ccl5, Cx3cl1, Cxcl10, Cxcl16, Cxcl17, Il1rn, Il34 mRNA abundance)” value (MDCK renal cells [3]) turn out when `CN1C(=O)c2sccc2N(C)c2nc(Nc3ccc(S(N)(=O)=O)cc3)ncc21` [XMU-MP-1, 4-[(6, 10-Dihydro-5, 10-dimethyl-6-oxo-5H-pyrimido[5,4-b]thieno[3,2-e][1,4]diazepin-2-yl)amino]benzenesulfonamide] was run?
**A.** reduces NPH-cytokine signature

**Q.** And the “inflammatory response to uropathogenic bacteria (cytokine mRNA abundance)” value (mIMCD-3 renal cells [4])?
**A.** blunts inflammatory response to uropathogenic bacteria

**Q.** What about the “inflammatory response to bacteria (Ccl2 and Cxcl10 mRNA abundance)” value (MDCK renal cells [1]; 5 μM XMU-MP-1 and UPEC) of the same compound?
**A.** reduces NPH-cytokine signature and inflammatory response to bacteria

**Q.** What about the “NPH-cytokine signature (Ctgf, Cyr61, Ccl2, Ccl5, Cx3cl1, Cxcl1, Cxcl10, Cxcl16, Cxcl17, Il1rn, Il33, Il34, Lgals9 mRNA abundance)” value (mIMCD-3 renal cells [2]; 5 μM XMU-MP-1, 6 hours) of the same compound?
**A.** suppresses NPH-cytokine signature
